According to patent US20250212892A1, “USE OF THERMALLY HYDROLYZED KERATIN PEPTIDE SOLUTION IN ENHANCING THE YIELD AND QUALITY OF TEA LEAVES” (CH Biotech R&D Co., Ltd., priority 2023, published 2025):

Tested on: tea tree (Camellia Sinesis)
Experiment: Spring application (soil infusion, then leaf spray twice): tea shoot production and proportion of terminal facing leaves
Assay type: in vivo
Details: urea 200× dilution
Source text: The inventors defined a unit area of 30×30 cm^2 for harvesting tea shoot and measuring weights. The inventors further defined a percentage value of cease-growing bud weight relative to the total bud weight, as indication of the increased tea leaf production without advancing the bud-aging side-effect.
One of the experiments involves first soil infusion application one week after initial harvesting, then leaf-spraying of KHP-1 500× solution twice, first time at the one-bud-with-one-leaf stage and second time at one-bud-with-two-leaf stage. In addition to a CK group, another urea application group of 200× dilution (200 kg of water to 1 kg of urea) is also tabulated. The result is shown in FIG. 1A where the tea shoot's production for the KHP-1 500× group is 32.54 g in a 900 cm^2 harvest area, higher than that of the CK group (20.86 g) and urea group (28.69 g).
This is reflected in FIG. 1B.

SMILES: NC(N)=O [urea]
- tea shoot's production (900 cm^2 harvest area, FIG. 1A): 28.69 g
- proportion of terminal facing leaves (FIG. 1B): 47.4%
